Assay [1] deals with T1, GABAA (α1β2γ2s) receptors (UniProt P14867+P18508+P63138).
T1 construct: expressed in transfected cells; host or cells: Xenopus laevis oocytes (intranuclear plasmid injection, α1:β2:γ2 = 1:1:10)
Kind of assay: GABAA receptor two-electrode voltage clamp in oocytes at saturated drug concentration. The format is cell-based, human α1, rat β2 and γ2s. Particulars: for GABAA % Direct Effect: drug response without receptor agonist; for GABAA % Direct Effect / GABAA % Agonist Effect: percent of control agonist peak, mean ±SEM, 5-6 oocytes, saturated drug; for GABAA % Agonist Effect: drug with γ-aminobutyric acid; for GABAA Drug Response: drug+agonist versus control agonist peak; for GABAA receptor modulation (in words): saturating aqueous concentration. The source says: (§1) GABAA (α1β2γ2s) or NMDA (NR1/NR2A) receptors were expressed in oocytes and studied using standard two-electrode voltage clamp techniques. Hydrocarbons from 14 different organic functional groups were studied at saturated concentrations, and compounds within each group differed only by the carbon number at the ω-position or within a saturated ring. An effect on GABAA or NMDA receptors was defined as a 10% or greater reversible current change from baseline that was statistically different from zero.
(§2) An ovary from tricaine-anesthetized Xenopus laevis frogs was surgically removed using a protocol approved by the Institutional Animal Care and Use Committee at the University of California, Davis. Following manual disruption of the ovarian lobule septae, the ovary was incubated in 0.2% Type I collagenase (Worthington Biochemical, Lakewood, N.J.) to defolliculate oocytes which were washed and stored in fresh and filtered modified Barth's solution composed of 88 mM NaCl, 1 mM KCl, 2.4 mM NaHCO3, 20 mM HEPES, 0.82 mM MgSO4, 0.33 mM Ca(NO3)2, 0.41 mM CaCl2, 5 mM sodium pyruvate, gentamycin, penicillin, streptomycin, and corrected to pH=7.4. All salts and antibiotics were A.C.S. grade (Fisher Scientific, Pittsburgh, Pa.).
(§3) Clones used were provided as a gift from Dr. R. A. Harris (University of Texas, Austin) and were sequenced and compared to references in the National Center for Biotechnology Information database to confirm the identity of each gene. GABAA receptors were expressed using clones for the human GABAA α1 and the rat GABAA β2 and γ2s subunits in pCIS-II vectors. […] In separate oocytes, glutamate receptors were expressed using rat NMDA NR1 clones in a pCDNA3 vector and rat NMDA NR2A clones in a Bluescript vector. RNA encoding each subunit was prepared using a commercial transcription kit (T7 mMessage mMachine, Ambion, Austin, Tex.) was mixed in a 1:1 ratio, and 1-10 ng of total RNA was injected into oocytes and studied 1-2 days later.
Oocytes were studied in a 250 μL linear-flow perfusion chamber with solutions administered by syringe pump at 1.5 ml/min with gastight glass syringes and Teflon tubing. Oocyte GABAA currents were studied using standard two-electrode voltage clamping techniques at a holding potential of […] using a 250 μL channel linear-flow perfusion chamber with solutions administered by syringe pump at 1.5 mL/min.
After FR perfusion for 5 min, oocytes were exposed to 30 sec FR-GABA followed by another 5 min FR washout; this was repeated until stable GABAA-elicited peaks were obtained. Next, FR containing a saturated solution of the study drug (Table 2)—or for gaseous study compounds a vapor pressure equal to 90% of barometric pressure with balance oxygen—was used to perfuse the oocyte chamber for 2 min followed by perfusion with a FR-GABA solution containing the identical drug concentration for 30 sec.
(§4) Modulating drug responses were calculated as the percent of the control (baseline) peak as follows: 100·ID/IB, where ID and IB were the peak currents measured during agonist+drug and agonist baseline perfusions, respectively. When present, direct receptor activation by a drug was similarly calculated as a percent of the agonist response. […] A lack of receptor response (cut-off) was defined as a<10% change from baseline current that was statistically indistinguishable from zero using a two-tailed Student t-test.
A general note: Two-electrode voltage clamp is typically applied to oocytes expressing channels or transporters.

For assay [2], the target named is T2, NMDA (NR1/NR2A) receptors (Rattus norvegicus, UniProt P35439+Q00959).
T2 construct: expressed in transfected cells; host or cells: Xenopus laevis oocytes (RNA injection, 1:1)
Kind of assay: NMDA receptor two-electrode voltage clamp in oocytes at saturated drug concentration. Particulars: for NMDA % Direct Effect: drug response without receptor agonist; for NMDA % Direct Effect / NMDA % Agonist Effect: percent of control agonist peak, mean ±SEM, 5-6 oocytes, saturated drug; for NMDA % Agonist Effect: drug with glutamate and glycine; for NMDA Drug Response: drug+agonist versus control agonist peak; for NMDA receptor modulation (in words): saturating aqueous concentration. It counts as cell-based.
Source text: as §1, §2, §3
Briefly, baseline perfusion solutions were the same as for GABAA with the substitution of equimolar BaCl2 for calcium salts and the addition of 0.1 mM EGTA; this constituted barium frog Ringer's solution (BaFR). Agonist solutions for NMDA studies also contained 0.1 mM glutamate (E) and 0.01 mM glycine (G) to constitute a BaFREG solution.
The syringe pump and perfusion chamber apparatus as well as the clamp holding potential and baseline-agonist exposure protocols were identical to that described for the GABAA studies. The same test compounds, concentrations, and preparative methods were used in NMDA voltage clamp studies as in the GABAA voltage clamp studies (Table 2).
as §4

Entries after “also recorded” stand apart in the source; their conditions may differ.

T2 sequence (Q00959 23-1464, other chains not shown): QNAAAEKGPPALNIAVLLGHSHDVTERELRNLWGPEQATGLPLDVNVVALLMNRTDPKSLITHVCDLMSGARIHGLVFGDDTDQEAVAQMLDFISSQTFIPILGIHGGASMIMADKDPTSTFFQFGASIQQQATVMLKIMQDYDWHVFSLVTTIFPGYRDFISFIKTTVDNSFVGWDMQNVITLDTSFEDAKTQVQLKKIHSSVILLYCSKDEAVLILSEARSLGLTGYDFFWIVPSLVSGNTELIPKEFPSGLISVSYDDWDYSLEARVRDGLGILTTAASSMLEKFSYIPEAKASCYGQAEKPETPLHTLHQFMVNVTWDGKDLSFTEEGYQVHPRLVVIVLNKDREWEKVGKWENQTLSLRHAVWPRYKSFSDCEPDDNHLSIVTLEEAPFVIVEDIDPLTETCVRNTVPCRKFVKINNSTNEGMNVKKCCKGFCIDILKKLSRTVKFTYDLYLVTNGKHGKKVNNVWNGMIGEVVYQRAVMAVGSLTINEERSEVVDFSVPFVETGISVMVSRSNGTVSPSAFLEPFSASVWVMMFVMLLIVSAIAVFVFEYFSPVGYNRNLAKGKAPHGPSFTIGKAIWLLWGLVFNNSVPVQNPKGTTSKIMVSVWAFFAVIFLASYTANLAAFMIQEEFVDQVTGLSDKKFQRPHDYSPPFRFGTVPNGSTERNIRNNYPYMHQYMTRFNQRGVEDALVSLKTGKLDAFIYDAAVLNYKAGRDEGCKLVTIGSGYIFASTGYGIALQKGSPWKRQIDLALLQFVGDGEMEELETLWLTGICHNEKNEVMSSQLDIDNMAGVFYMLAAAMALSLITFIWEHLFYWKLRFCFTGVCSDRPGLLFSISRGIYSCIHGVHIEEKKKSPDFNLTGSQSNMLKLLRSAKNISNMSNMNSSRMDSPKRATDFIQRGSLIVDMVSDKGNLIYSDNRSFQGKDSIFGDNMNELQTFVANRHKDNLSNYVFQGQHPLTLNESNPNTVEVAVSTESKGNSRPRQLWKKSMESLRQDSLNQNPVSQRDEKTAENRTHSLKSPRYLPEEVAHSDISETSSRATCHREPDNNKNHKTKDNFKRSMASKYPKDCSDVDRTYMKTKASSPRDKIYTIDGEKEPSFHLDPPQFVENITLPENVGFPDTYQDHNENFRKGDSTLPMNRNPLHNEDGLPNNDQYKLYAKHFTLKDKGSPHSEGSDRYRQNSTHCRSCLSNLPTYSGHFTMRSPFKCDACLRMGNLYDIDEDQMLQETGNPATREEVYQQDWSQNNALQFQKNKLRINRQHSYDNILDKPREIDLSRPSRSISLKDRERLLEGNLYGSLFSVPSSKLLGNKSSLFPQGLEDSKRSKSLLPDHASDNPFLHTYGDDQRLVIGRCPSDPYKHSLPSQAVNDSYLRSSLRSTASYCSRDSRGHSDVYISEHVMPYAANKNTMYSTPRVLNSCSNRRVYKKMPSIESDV
T1 sequence (P14867 28-456): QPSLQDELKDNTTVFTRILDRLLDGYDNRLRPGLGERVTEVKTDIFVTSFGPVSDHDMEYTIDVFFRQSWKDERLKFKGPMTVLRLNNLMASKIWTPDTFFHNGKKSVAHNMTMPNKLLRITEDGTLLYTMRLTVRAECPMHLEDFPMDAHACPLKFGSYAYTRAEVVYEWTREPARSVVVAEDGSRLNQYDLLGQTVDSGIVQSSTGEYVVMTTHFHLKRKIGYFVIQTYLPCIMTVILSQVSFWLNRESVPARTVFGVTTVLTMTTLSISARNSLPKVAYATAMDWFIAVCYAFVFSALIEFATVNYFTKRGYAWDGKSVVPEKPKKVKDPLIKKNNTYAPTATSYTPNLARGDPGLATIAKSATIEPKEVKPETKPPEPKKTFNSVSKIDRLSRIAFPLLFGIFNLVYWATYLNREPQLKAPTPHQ
T1 sequence (P63138 25-474 limits assumed): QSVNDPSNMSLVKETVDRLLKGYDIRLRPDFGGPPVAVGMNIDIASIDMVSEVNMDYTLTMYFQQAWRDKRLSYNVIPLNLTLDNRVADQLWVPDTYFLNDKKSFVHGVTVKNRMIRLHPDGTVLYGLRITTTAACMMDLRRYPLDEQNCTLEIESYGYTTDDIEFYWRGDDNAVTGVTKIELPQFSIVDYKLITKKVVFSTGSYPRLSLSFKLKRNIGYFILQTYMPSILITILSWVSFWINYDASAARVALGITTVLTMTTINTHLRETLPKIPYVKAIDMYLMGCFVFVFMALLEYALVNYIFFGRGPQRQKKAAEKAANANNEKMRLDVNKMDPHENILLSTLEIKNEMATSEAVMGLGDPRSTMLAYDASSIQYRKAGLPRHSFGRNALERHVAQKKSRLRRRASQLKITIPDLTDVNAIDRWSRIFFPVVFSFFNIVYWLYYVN
T1 sequence (P18508 39-466): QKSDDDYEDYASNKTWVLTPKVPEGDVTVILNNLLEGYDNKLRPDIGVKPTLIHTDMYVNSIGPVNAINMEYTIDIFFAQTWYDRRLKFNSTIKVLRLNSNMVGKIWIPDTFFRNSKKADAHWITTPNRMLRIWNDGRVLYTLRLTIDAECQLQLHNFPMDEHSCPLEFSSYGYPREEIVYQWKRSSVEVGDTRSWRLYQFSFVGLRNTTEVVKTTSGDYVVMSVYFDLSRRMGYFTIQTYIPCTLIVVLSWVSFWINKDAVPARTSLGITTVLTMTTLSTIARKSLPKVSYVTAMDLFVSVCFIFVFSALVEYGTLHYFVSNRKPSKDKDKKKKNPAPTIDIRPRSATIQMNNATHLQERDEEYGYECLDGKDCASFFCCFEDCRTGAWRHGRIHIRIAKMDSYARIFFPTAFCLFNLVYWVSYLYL

Consider `CCCCCCCC=O` [octanal], for which, in assay [1], the “GABAA % Direct Effect” value was 6 ± 3%, the “GABAA % Agonist Effect” value is on record as 357 ± 20% and the “GABAA Drug Response” value was “+ (potentiation (+) for drug+agonist responses greater than the control agonist peak)”. Further, in assay [2], the “NMDA % Direct Effect” value was “none” and the “NMDA % Agonist Effect” value was 71 ± 3%.
On to `CCCCC` [pentane], for which, in assay [1], the “GABAA % Direct Effect” value is recorded as “none”, the “GABAA % Agonist Effect” value is given as 321 ± 10%, the “GABAA Drug Response” value is reported as “+ (potentiation (+) for drug+agonist responses greater than the control agonist peak)” and the “GABAA receptor modulation (in words)” value is given as “positively modulate”. In assay [2], the “NMDA % Direct Effect” value is reported as “none”, the “NMDA % Agonist Effect” value is listed as 94 ± 3%, the “NMDA Drug Response” value is 0 (no response (0) for drug+agonist responses that differ by <10% from the control agonist peak) and the “NMDA receptor modulation (in words)” value is recorded as “does not modulate NMDA receptors; also recorded: no effect”.
As to `CCCCCCCCCCCCO` [1-dodecanol], in assay [1], the “GABAA % Direct Effect” value is “none”, the “GABAA % Agonist Effect” value was 177 ± 4% and the “GABAA Drug Response” value is “+ (potentiation (+) for drug+agonist responses greater than the control agonist peak)”. In assay [2], the “NMDA % Direct Effect” value is given as “none”, the “NMDA % Agonist Effect” value stood at 98 ± 1% and the “NMDA Drug Response” value was 0 (no response (0) for drug+agonist responses that differ by <10% from the control agonist peak).
For `C1CCCC1` [cyclopentane], in assay [1], the “GABAA % Direct Effect” value worked out at 3 ± 2%, the “GABAA % Agonist Effect” value turned out to be 196 ± 11% and the “GABAA Drug Response” value was “+ (potentiation (+) for drug+agonist responses greater than the control agonist peak)”. In assay [2], the “NMDA % Direct Effect” value was “none” and the “NMDA % Agonist Effect” value worked out at 83 ± 2%.
Consider `CCCCCCCCCC(C)=O` [2-undecanone], for which, in assay [1], the “GABAA % Direct Effect” value is “none”, the “GABAA % Agonist Effect” value was 230 ± 16% and the “GABAA Drug Response” value is “+ (potentiation (+) for drug+agonist responses greater than the control agonist peak)”. Besides, in assay [2], the “NMDA % Direct Effect” value was “none”, the “NMDA % Agonist Effect” value is 98 ± 2% and the “NMDA Drug Response” value was 0 (no response (0) for drug+agonist responses that differ by <10% from the control agonist peak).
`C1CCCCC1` [cyclohexane]: in assay [1], the “GABAA % Direct Effect” value was “none”, the “GABAA % Agonist Effect” value is 421 ± 17% and the “GABAA Drug Response” value is given as “+ (potentiation (+) for drug+agonist responses greater than the control agonist peak)”. Besides, in assay [2], the “NMDA % Direct Effect” value is recorded as “none”, the “NMDA % Agonist Effect” value was 101 ± 2% and the “NMDA Drug Response” value is listed as 0 (no response (0) for drug+agonist responses that differ by <10% from the control agonist peak).
As to `CCCCCCCCCCCCCCCCCCN` [1-octadecanamine], in assay [1], the “GABAA % Direct Effect” value was “none”, the “GABAA % Agonist Effect” value is 146 ± 5% and the “GABAA Drug Response” value is listed as “+ (potentiation (+) for drug+agonist responses greater than the control agonist peak)”. In assay [2], the “NMDA % Direct Effect” value is reported as “none” and the “NMDA % Agonist Effect” value came out at 73 ± 4%.
As to `CCCC` [butane], in assay [1], the “GABAA % Direct Effect” value is given as “none”, the “GABAA % Agonist Effect” value is reported as 623 ± 68%, the “GABAA Drug Response” value was “+ (potentiation (+) for drug+agonist responses greater than the control agonist peak)” and the “GABAA receptor modulation (in words)” value was “positively modulate”. In assay [2], the “NMDA % Direct Effect” value is recorded as “none”, the “NMDA % Agonist Effect” value is on record as 7 ± 2% and the “NMDA receptor modulation (in words)” value is reported as “negatively modulates”. The “NMDA receptor modulation (in words)” value in assay [2] (listed as n-butane) was “almost completely inhibited NMDA receptor currents”.
With `CCCCCCCCCCC=O` [undecanal], in assay [1], the “GABAA % Direct Effect” value was “none”, the “GABAA % Agonist Effect” value is 299 ± 29% and the “GABAA Drug Response” value is recorded as “+ (potentiation (+) for drug+agonist responses greater than the control agonist peak)”. In assay [2], the “NMDA % Direct Effect” value was “none”, the “NMDA % Agonist Effect” value was 97 ± 8% and the “NMDA Drug Response” value is 0 (no response (0) for drug+agonist responses that differ by <10% from the control agonist peak).
For the molecule `CCCCCCCCCCCCCCCCCCCCN` [1-eicosanamine], in assay [1], the “GABAA % Direct Effect” value is listed as “none”, the “GABAA % Agonist Effect” value was determined as 166 ± 7% and the “GABAA Drug Response” value is recorded as “+ (potentiation (+) for drug+agonist responses greater than the control agonist peak)”. Further, in assay [2], the “NMDA % Direct Effect” value is reported as “none”, the “NMDA % Agonist Effect” value stood at 108 ± 1% and the “NMDA Drug Response” value is listed as 0 (no response (0) for drug+agonist responses that differ by <10% from the control agonist peak).
In the case of `CCCCCC` [hexane], in assay [1], the “GABAA % Direct Effect” value is “none”, the “GABAA % Agonist Effect” value turned out to be 129 ± 5% and the “GABAA Drug Response” value is “+ (potentiation (+) for drug+agonist responses greater than the control agonist peak)”. Also, in assay [2], the “NMDA % Direct Effect” value is “none”, the “NMDA % Agonist Effect” value turned out to be 100 ± 1% and the “NMDA Drug Response” value is 0 (no response (0) for drug+agonist responses that differ by <10% from the control agonist peak).
`CCCCCCF` [1-fluorohexane]: in assay [1], the “GABAA % Direct Effect” value was 11 ± 4%, the “GABAA % Agonist Effect” value is 207 ± 13% and the “GABAA Drug Response” value is reported as “+ (potentiation (+) for drug+agonist responses greater than the control agonist peak)”. In addition, in assay [2], the “NMDA % Direct Effect” value is recorded as “none”, the “NMDA % Agonist Effect” value is 101 ± 1% and the “NMDA Drug Response” value is recorded as 0 (no response (0) for drug+agonist responses that differ by <10% from the control agonist peak).
For the molecule `CCCCCCCCCCC(C)=O` [2-dodecanone], in assay [1], the “GABAA % Direct Effect” value is on record as “none”, the “GABAA % Agonist Effect” value was 325 ± 30% and the “GABAA Drug Response” value is given as “+ (potentiation (+) for drug+agonist responses greater than the control agonist peak)”. Moreover, in assay [2], the “NMDA % Direct Effect” value is “none”, the “NMDA % Agonist Effect” value was found to be 97 ± 3% and the “NMDA Drug Response” value was 0 (no response (0) for drug+agonist responses that differ by <10% from the control agonist peak).
On to `CCCCCCOCCCCCC` [dihexylether], for which, in assay [1], the “GABAA % Direct Effect” value is given as “none”, the “GABAA % Agonist Effect” value is recorded as 113 ± 1% and the “GABAA Drug Response” value was “+ (potentiation (+) for drug+agonist responses greater than the control agonist peak)”. In assay [2], the “NMDA % Direct Effect” value is given as “none”, the “NMDA % Agonist Effect” value was determined as 112 ± 4% and the “NMDA Drug Response” value is on record as 0 (no response (0) for drug+agonist responses that differ by <10% from the control agonist peak).
Turning to `CCCCCCCCF` [1-fluoroctane], in assay [1], the “GABAA % Direct Effect” value is “none”, the “GABAA % Agonist Effect” value came to 182 ± 18% and the “GABAA Drug Response” value was “+ (potentiation (+) for drug+agonist responses greater than the control agonist peak)”. For the same molecule, in assay [2], the “NMDA % Direct Effect” value is given as “none”, the “NMDA % Agonist Effect” value came to 98 ± 1% and the “NMDA Drug Response” value is reported as 0 (no response (0) for drug+agonist responses that differ by <10% from the control agonist peak).
